pIC50: −log10 of the molar value. Like-named read-outs stand apart in the source and are kept apart here. Each block holds one compound with its values, some of them ahead of it.
How the values were obtained:
[1] = Pharmacokinetic evaluation (1): cassette PK in Balb/c male mice, plasma; format: in vivo; settings: for C0 / clearance / Vd / AUC0-last / T1/2 / Tlast / Cmax / Tmax / AUC(0-t) / half-life: mouse plasma; for Vd: read-out: Vdss; for F: mouse, PO 2 mg/kg vs IV 0.4 mg/kg
Experimental: Test compounds were mixed with 10% dimethyl sulfoxide/50% polyethylene glycol 200/40% water (compounds 1, 4, 10, 17) or 20% N,N-dimethylacetamide/80% water (compound 5), vortexed and sonicated to prepare a nearly clear solution of 0.08 mg/mL (compounds 1, 4, 10, 17) or 0.50 mg/mL (compound 5), then filtered through a microporous membrane for next step. Balb/c male mice of 18 to 20 grams were selected and administered intravenously with the candidate compound solution at a dose of 0.4 (compounds 1, 4, 10, 17) or 1 mg/kg (compound 5). Test compounds were mixed with 10% dimethyl sulfoxide/50% polyethylene glycol 200/40% water (compounds 1, 4, 10, 17) or 20%-hydroxypropyl-β-cyclodextrin (compound 5), vortexed and sonicated to prepare a nearly clear solution of 0.2 mg/mL (compounds 1, 4, 10, 17) or 1 mg/mL (compound 5), then filtered through a microporous membrane for next step. Balb/c male mice of 18 to 20 grams were selected and orally administered with the candidate compound solution at a dose of 2 (compounds 1, 4, 10, 17) or 5 mg/kg (compound 5). Whole blood was collected for a certain period of time, and plasma was prepared, then drug concentration was detected by LC-MS/MS method, and pharmacokinetic parameters were calculated by Phoenix WinNonlin software (Pharsight, USA).
IV: intravenous injection; PO: oral; C0: instantaneous […] concentration after intravenous injection; Cmax: highest plasma concentration after administration; Tmax: time required to reach peak of drug concentration after administration; T1/2: time required for the plasma drug concentration to decrease by half, Vdss: apparent volume of distribution, refers to the proportional constant of the drug dose in vivo and the blood drug concentration when the drug reaches a dynamic equilibrium in vivo. Cl: clearance rate, refers to the […] cleared from the body per unit time; Tlast: time at the last detection point; AUC0-last: area under the drug-time curve, refers to the area covered by the plasma concentration curve and the time axis; F: a measure of the speed and degree of drug absorption into the blood circulation, which is an important indicator for evaluating the degree of drug absorption.

Human DNA-PK = target: T1, Human DNA-PK (Homo sapiens, UniProt P78527); test: DNA-dependent protein kinase (DNA-PK) inhibitory activity screening (Eurofins, HTRF); format: biochemical; settings: ATP: 10 μM; read-out: DNA-PK kinase inhibition IC50
T1 construct: purchased Eurofins (Eurofins Pharma Discovery Service)
Experimental: Experimental Embodiment 1: DNA-Dependent Protein Kinase (DNA-PK) Inhibitory Activity Screening Experiment
This experiment was tested in the Eurofins
Human DNA-PK; Mg/ATP; GST-cMyc-p53; EDTA; Ser15 antibody; ATP: 10 μM.
Experimental Method (Eurofins Pharma Discovery Service):
DNA-PK (h) was incubated in assay buffer containing 50 nM GST-cMyc-p53 and Mg/ATP (according to the required concentration). The reaction was initiated by adding Mg/ATP mixture. After 30 minutes of incubation at room temperature, the reaction was stopped by adding a stop solution containing EDTA. Finally, detection buffer (containing labeled anti-GST monoclonal antibody and europium-labeled anti-Ser15 antibody against phosphorylated p53) was added. The plate was then read in time-resolved fluorescence mode, and the homogeneous time-resolved fluorescence (HTRF) signal was determined according to the formula HTRF=10000×(Em665 nm/Em620 nm).

[2] = male, Balb/c, PO 2 mg/kg, read-out: Tmax

Structure (SMILES): Cc1cc2ncnn2cc1Nc1ncc2c(n1)n(N1CCOCC1)c(=O)n2C [Compound 1]
C0 ([1]; male, Balb/c, IV 0.4 mg/kg): 959 nM
clearance ([1]; male, Balb/c, IV 0.4 mg/kg): 37.7 mL/min/kg
Vd ([1]; male, Balb/c, IV 0.4 mg/kg): 1.51 L/kg
AUC0-last ([1]; IV 0.4 mg/kg): 0.426 µM·h
T1/2 ([1]; IV 0.4 mg/kg): 35.9 min
Tlast ([1]; IV 0.4 mg/kg): 4 h
AUC0-last ([1]; PO 2 mg/kg): 2.497 µM·h
Cmax ([1]; PO 2 mg/kg): 1420 nM
T1/2 ([1]; PO 2 mg/kg): 50.5 min
Tlast ([1]; PO 2 mg/kg): 8 h
Tmax ([1]; PO 2 mg/kg): 30 min
F [1]: 96.4%
pIC50 (Human DNA-PK): 8.70

Structure (SMILES): Cc1cc2ncnn2cc1Nc1ncc2c(n1)n(N1C3CCC1COC3)c(=O)n2C [Compound 4]
AUC(0-t) ([1]; male, Balb/c, IV 0.4 mg/kg): 0.286 µM·h
C0 ([1]; male, Balb/c, IV 0.4 mg/kg): 919 nM
clearance ([1]; male, Balb/c, IV 0.4 mg/kg): 57 mL/min/kg
half-life ([1]; male, Balb/c, IV 0.4 mg/kg): 14.4 min
Vd ([1]; male, Balb/c, IV 0.4 mg/kg): 1.08 L/kg
AUC(0-t) ([1]; male, Balb/c, PO 2 mg/kg): 1.74 µM·h
Cmax ([1]; male, Balb/c, PO 2 mg/kg): 1600 nM
half-life ([1]; male, Balb/c, PO 2 mg/kg): 36.5 min
Tmax [1, 2]: 15 min
Tlast ([1]; IV 0.4 mg/kg): 2 h
Tlast ([1]; PO 2 mg/kg): 4 h
F [1]: 123%
pIC50 (Human DNA-PK): 9.00

Structure (SMILES): Cc1cc2ncnn2cc1Nc1ncc2c(n1)n(N1CC3CC(C1)O3)c(=O)n2C [Compound 6]
pIC50 (Human DNA-PK): 9.00

Structure (SMILES): Cc1cc2ncnn2cc1Nc1ncc2c(n1)n(N1CCC(F)(F)CC1)c(=O)n2C [Compound 7]
pIC50 (Human DNA-PK): 8.70

Structure (SMILES): Cc1cc2ncnn2cc1Nc1ncc2c(n1)n(N1CCOC3(CC3)C1)c(=O)n2C [Compound 10]
AUC(0-t) ([1]; male, Balb/c, IV 0.4 mg/kg): 0.64 µM·h
C0 ([1]; male, Balb/c, IV 0.4 mg/kg): 1120 nM
clearance ([1]; male, Balb/c, IV 0.4 mg/kg): 25.4 mL/min/kg
half-life ([1]; male, Balb/c, IV 0.4 mg/kg): 35.5 min
Vd ([1]; male, Balb/c, IV 0.4 mg/kg): 0.883 L/kg
AUC(0-t) ([1]; male, Balb/c, PO 2 mg/kg): 3.83 µM·h
Cmax ([1]; male, Balb/c, PO 2 mg/kg): 2060 nM
half-life ([1]; male, Balb/c, PO 2 mg/kg): 73.2 min
Tmax [1, 2]: 30 min
Tlast ([1]; IV 0.4 mg/kg): 4 h
Tlast ([1]; PO 2 mg/kg): 8 h
F [1]: 120%
pIC50 (Human DNA-PK): 8.60

Structure (SMILES): Cc1cc2ncnn2cc1Nc1ncc2c(n1)n(N1CCC3(CC1)COC3)c(=O)n2C [Compound 11]
pIC50 (Human DNA-PK): 8.30

Structure (SMILES): Cc1cc2ncnn2cc1Nc1ncc2c(n1)n(N1CCC3(CCO3)CC1)c(=O)n2C [Compound 12]
pIC50 (Human DNA-PK): 8.40

Structure (SMILES): Cc1cc2ncnn2cc1Nc1ncc2c(n1)n(N1CCOC3(CCC3)C1)c(=O)n2C [Compound 13]
pIC50 (Human DNA-PK): 8.70

More lines, now with the values ahead:

pIC50 (Human DNA-PK): 8.30
Structure (SMILES): Cc1cc2ncnn2cc1Nc1ncc2c(n1)n(N1CCC(C#N)CC1)c(=O)n2C [Compound 14]

pIC50 (Human DNA-PK): 9.00
Structure (SMILES): Cc1cc2ncnn2cc1Nc1ncc2c(n1)n(N1CC3CCCC3C1)c(=O)n2C (stereo not drawn) [Compound 15]

pIC50 (Human DNA-PK): 9.30
Structure (SMILES): Cc1cc2ncnn2cc1Nc1ncc2c(n1)n(N1CC3CC3C1)c(=O)n2C (stereo not drawn) [Compound 16]

pIC50 (Human DNA-PK): 9.05
Structure (SMILES): Cc1cc2nncn2cc1Nc1ncc2c(n1)n(N1C3CCC1COC3)c(=O)n2C [Compound 18]

pIC50 (Human DNA-PK): 9.22
Structure (SMILES): Cc1cc2nccn2cc1Nc1ncc2c(n1)n(N1CC3CCC(C1)O3)c(=O)n2C [Compound 19]

pIC50 (Human DNA-PK): 9.05
Structure (SMILES): Cc1cc2nccn2cc1Nc1ncc2c(n1)n(N1C3CCC1COC3)c(=O)n2C [Compound 20]

pIC50 (Human DNA-PK): 9.30
Structure (SMILES): Cc1cn2ncnc2cc1Nc1ncc2c(n1)n(N1CC3CCC(C1)O3)c(=O)n2C [Compound 21]

pIC50 (Human DNA-PK): 9.40
Structure (SMILES): Cc1cn2ncnc2cc1Nc1ncc2c(n1)n(N1C3CCC1COC3)c(=O)n2C [Compound 22]

pIC50 (Human DNA-PK): 8.00
Structure (SMILES): Cc1nc2nccn2cc1Nc1ncc2c(n1)n(N1CC3CCC(C1)O3)c(=O)n2C [Compound 23]

pIC50 (Human DNA-PK): 7.17
Structure (SMILES): Cc1nc2nccn2cc1Nc1ncc2c(n1)n(N1C3CCC1COC3)c(=O)n2C [Compound 24]

Reference: patent US20230026616A1, “PYRIMIDOIMIDAZOLE COMPOUNDS USED AS DNA-PK INHIBITORS” (MEDSHINE DISCOVERY INC., priority 2019, published 2023)
